One data set relates to anaesthetized rats. The data set is described as follows: Blood pressure measurements in anaesthetized rats. The format is in vivo, rat. Particulars: male Wistar rats, oral, dose 10 mg/kg. The procedure:
(§1) To determine the cardiovascular actions, the following investigations were carried out: in in vitro investigations on cells of vascular origin, the influx on guanylate cyclase-dependent cGMP formation was tested with and without NO donor. The anti-aggregatory properties were shown on human platelets stimulated with collagen. The vasorelaxant action was determined in rabbit aortal rings precontracted with phenylephrine. The hypotentive action was investigated in anaesthetized rats.
Male Wistar rats having a body weight of 300-350 g are anaesthetized with thiopental (100 mg/kg i.p.) After tracheotomy, a catheter is inserted in the femoral artery for blood pressure measurement. The substances to be tested are administered orally in various doses by means of stomach tube as a suspension in Tylose solution.
For `OCc1ccc(-c2nn(Cc3ccccc3)c3ncccc23)o1` [Example 13, 1-Benzyl-3-(5-hydroxymethyl-2-furyl)-1-H-pyrazolo[3,4-b]pyridine], the “Max blood pressure fall” value was −13 mm Hg and the “Time (of max blood pressure fall)” value turned out to be 60 min.

The data set is the same for the next values; noted with them: male Wistar rats, oral, dose 30 mg/kg.
`OCc1ccc(-c2nn(Cc3ccccc3)c3ncccc23)o1` [Example 13, 1-Benzyl-3-(5-hydroxymethyl-2-furyl)-1-H-pyrazolo[3,4-b]pyridine]: the “Max blood pressure fall” value is −23 mm Hg and the “Time (of max blood pressure fall)” value worked out at 60 min.

In another data set the test system is soluble guanylate cyclase. As to the kind of experiment: Stimulation of soluble guanylate cyclase in primary endothelial cells (intracellular cGMP). The format is cell-based. Particulars: primary rabbit aortic endothelial cells, test substance final concentration 1 μM, 10 min incubation, with or without NO donor (SNP 1 μM). How it is done:
as §1
Primary endothelial cells were isolated from rabbit aortas by treatment with collagenase soln. The cells were then cultured in culture medium at 37° C./5% CO2 until confluence was reached. For the investigations, the cells were passaged, inoculated into 24-hole cell culture plates and subcultured until reaching confluence (˜2×10^5 cells/hollow). For the stimulation of endothelial guanylate cyclase, the culture medium was aspirated and the cells were washed once with Ringer solution. After removing the Ringer solution, the cells were incubated for 10 minutes at 37° C./5% CO2 in stimulation buffer with or without NO donor (sodium nitroprusside, SNP, 1 μM). […] The supernatants containing the intracellular cGMP were then removed and the cGMP concentration was determined by means of the cGMP-SPA system (Amersham Buchler, Brunswick).
In the case of `O=Cc1ccc(-c2nn(Cc3ccccc3F)c3nc(O)ccc23)o1` [Example 32], the “cGMP increase (%)” value is 135%.

Tested on in a further data set: not given
Test: not given
Conditions: not given
In general, melting point refers to the temperature, or range, at which the solid turns liquid. `OCc1ccc(-c2nn(Cc3ccccc3)c3ncncc23)o1` [Example 34]: the melting point is 165 °C.

As to `Nc1ncnc2c1c(-c1ccc(CO)o1)nn2Cc1ccccc1` [Example 35], the melting point is 213 °C.

With `Nc1ncnc2c1c(-c1ccc(CO)o1)nn2Cc1ccccc1F` [Example 36], the melting point came out at 207 °C.

Regarding `CN(C)c1ncnc2c1c(-c1ccc(CO)o1)nn2Cc1ccccc1F` [Example 37], the melting point is 94 °C.

Turning to `Nc1nc(N)c2c(-c3ccc(CO)o3)nn(Cc3ccccc3F)c2n1` [Example 38], the melting point is 205 °C.

The compound `Nc1nc(-c2ccccc2)nc2c1c(-c1ccc(CO)o1)nn2Cc1ccccc1F` [Example 39] gave a melting point of 225 °C.

Regarding `O=CNc1nc(-c2ccccc2)nc2c1c(-c1ccc(CO)o1)nn2Cc1ccccc1F` [Example 40], the melting point turned out to be 189 °C.

The compound `COCCOc1cnc2c(c1)c(-c1ccc(CO)o1)nn2Cc1ccccc1F` [Example 42] showed a melting point of 106 °C.

`Cc1cc(C)c2c(-c3ccc(CO)o3)nn(Cc3ccccc3)c2n1` [Example 43]: the melting point is 155 °C.

Compound `Cc1nc2c(c(-c3ccc(CO)o3)nn2Cc2ccccc2)c(C)c1C` [Example 44] displayed a melting point of 180 °C.

As for `CN(C)[S+]([O-])c1ccc(-c2nn(Cc3ccccc3F)c3ncccc23)o1` (centres unmarked) [Example 50], the melting point worked out at 107 °C.

On to `[O-][S+](NCc1ccccc1)c1ccc(-c2nn(Cc3ccccc3F)c3ncccc23)o1` (centres unmarked) [Example 51], for which the melting point came to 126 °C.

`CN1CCC([S+]([O-])c2ccc(-c3nn(Cc4ccccc4F)c4ncccc34)o2)CC1` (centres unmarked) [Example 52] displayed a melting point of 279 °C.

`CCCCCCCCN[S+]([O-])c1ccc(-c2nn(Cc3ccccc3F)c3ncccc23)o1` (centres unmarked) [Example 53]: the melting point was 69 °C.

`[O-][S+](c1ccc(-c2nn(Cc3ccccc3F)c3ncccc23)o1)N1CCOCC1` (centres unmarked) [Example 54] gave a melting point of 122 °C.

`CC(C)N[S+]([O-])c1ccc(-c2nn(Cc3ccccc3F)c3ncccc23)o1` (centres unmarked) [Example 56] registered a melting point of 136 °C.

In turn, `[O-][S+](NC1CC1)c1ccc(-c2nn(Cc3ccccc3F)c3ncccc23)o1` (centres unmarked) [Example 57] gave a melting point of 138 °C.

The compound `CC(C)CN[S+]([O-])c1ccc(-c2nn(Cc3ccccc3F)c3ncccc23)o1` (centres unmarked) [Example 58] came in with a melting point of 109 °C.

`CCCCCCN[S+]([O-])c1ccc(-c2nn(Cc3ccccc3F)c3ncccc23)o1` (centres unmarked) [Example 59] returned a melting point of 114 °C.

In the case of `[O-][S+](NC1CCCCCC1)c1ccc(-c2nn(Cc3ccccc3F)c3ncccc23)o1` (centres unmarked) [Example 60], the melting point was 161 °C.

`CC(C)NS(=O)(=O)c1ccc(-c2nn(Cc3ccccc3F)c3ncccc23)o1` [Example 61]: the melting point came out at 109 °C.

The compound `[O-][S+](NCc1cccc2ccccc12)c1ccc(-c2nn(Cc3ccccc3F)c3ncccc23)o1` (centres unmarked) [Example 63] returned a melting point of 158 °C.

`CC(N[S+]([O-])c1ccc(-c2nn(Cc3ccccc3F)c3ncccc23)o1)c1ccccc1` (centres unmarked) [Example 64]: the melting point was 132 °C.

On to `[O-][S+](c1ccc(-c2nn(Cc3ccccc3F)c3ncccc23)o1)N1CCCC1` (centres unmarked) [Example 65], for which the melting point was 107 °C.

In turn, `[O-][S+](Nc1cccc(Cl)c1)c1ccc(-c2nn(Cc3ccccc3F)c3ncccc23)o1` (centres unmarked) [Example 66] had a melting point of 110 °C.

Compound `Cc1coc(-c2nn(Cc3ccccc3F)c3ncccc23)n1` [Example 67] returned a melting point of 106 °C.

On to `Cc1nc(-c2nn(Cc3ccccc3F)c3ncccc23)oc1CO` [Example 68], for which the melting point is 145 °C.
